Patent US20250034151A1, “WEE1 INHIBITOR, PREPARATION THEREFOR, AND USE THEREOF” (JIANGSU TASLY DIYI PHARMACEUTICAL CO., LTD., priority 2022, published 2025)

Target: T1, CYP1A2 (Homo sapiens, UniProt P05177)
T1 sequence (P05177 1-516): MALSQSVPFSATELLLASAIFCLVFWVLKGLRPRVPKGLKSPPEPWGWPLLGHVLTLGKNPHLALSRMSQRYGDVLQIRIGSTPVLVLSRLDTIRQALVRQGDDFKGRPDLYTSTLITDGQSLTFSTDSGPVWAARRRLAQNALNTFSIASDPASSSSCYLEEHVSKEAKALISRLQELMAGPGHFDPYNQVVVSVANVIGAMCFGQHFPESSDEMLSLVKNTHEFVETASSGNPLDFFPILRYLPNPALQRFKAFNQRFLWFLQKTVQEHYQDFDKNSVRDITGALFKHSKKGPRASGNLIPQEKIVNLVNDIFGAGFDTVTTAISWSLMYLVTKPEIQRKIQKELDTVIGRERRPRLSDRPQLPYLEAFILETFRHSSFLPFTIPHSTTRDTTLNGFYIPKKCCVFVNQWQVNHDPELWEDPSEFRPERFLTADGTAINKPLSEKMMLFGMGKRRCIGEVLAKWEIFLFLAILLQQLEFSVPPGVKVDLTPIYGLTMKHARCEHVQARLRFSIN
Assay: in vitro
Settings: CYP1A2 enzyme, pH 7.4, probe EOMCC (0.01 mM)

inhibition at 30 min, 1 µM: 20.2%
inhibition at 30 min, 10 µM: 17.5%
SMILES: C=CCn1c(=O)c2cnc(Nc3ccc(N4CCN(C)CC4)cc3)nc2n1-c1cccc(C(C)(C)O)n1 [AZD1775]
